These results are taken from PubChem BioAssay (NCI).

Test systems include SK-OV-3 ovarian; NCI-H226 lung; T-47D breast; NCI-H522 lung; CAKI-1 renal; A549 NSCLC; HCC-2998 colon; MDA-MB-231 breast; HL-60(TB) leukemia; LOX IMVI melanoma; SR leukemia.
Holding throughout (assay): NCI tumour cell line growth inhibition, 48 h

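Briefly, cells in 96-well plates were exposed to five compound concentrations for 48 h, and endpoints were estimated by linear interpolation. The concentration for full growth arrest is given as TGI.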

Turning to `CCCCCCCC(CC(=O)NC(CO)C(=O)NC(CO)CC(C)C)OC(=O)CC(CCCCCCC)OC(=O)CC(CCCCCCC)OC1OC(C)C(O)C(OC2OC(C)C(O)C(O)C2O)C1O` (configuration not stated), the TGI was 31.5 µM in the assay on SK-OV-3 ovarian; 38.7 µM with NCI-H226 lung; 26.6 µM in the assay on T-47D breast; 29.5 µM with NCI-H522 lung; 33.2 µM with CAKI-1 renal; 31.7 µM in the assay on A549 NSCLC. Moreover, the TGI with HCC-2998 colon was 43.1 µM; in the assay with MDA-MB-231 breast, 26.6 µM; in the assay on HL-60(TB) leukemia, 10.5 µM; with LOX IMVI melanoma, 17.7 µM; in the assay with SR leukemia, 15.9 µM.
In the case of `Cc1cc(C)c(S(=O)(=O)N(CCCN)OCCON(CCCN)S(=O)(=O)c2c(C)cc(C)cc2C)c(C)c1`, the TGI with SK-OV-3 ovarian is 24.8 µM; in the assay with NCI-H226 lung it was 18.1 µM; in the assay with T-47D breast it was greater than 45.1 µM; in the assay with NCI-H522 lung it was 13.6 µM; in the assay with CAKI-1 renal it was greater than 71.4 µM; in the assay with A549 NSCLC, greater than 100 µM. Moreover, the TGI with HCC-2998 colon was 4.24 µM; in the assay on MDA-MB-231 breast, greater than 23.4 µM; in the assay with HL-60(TB) leukemia it was greater than 21.9 µM; in the assay with LOX IMVI melanoma, greater than 100 µM; with SR leukemia it was greater than 100 µM.
In the case of `CC(Cc1cccc2c1Nc1ccccc1S2)N(C)CCO` (configuration not stated), the TGI in the assay with SK-OV-3 ovarian, with NCI-H226 lung, in the assay on T-47D breast, in the assay with NCI-H522 lung, in the assay with CAKI-1 renal and in the assay on A549 NSCLC was greater than 100 µM in each case. Further, the TGI with HCC-2998 colon, in the assay on MDA-MB-231 breast, in the assay with HL-60(TB) leukemia, in the assay on LOX IMVI melanoma and with SR leukemia was greater than 100 µM each time.
Regarding `COc1ccc2c(c1)-c1nc(=O)n(CCCN(C)C)c3ccc([N+](=O)[O-])c(c13)N2`, the TGI with SK-OV-3 ovarian worked out at 17.3 µM; in the assay with NCI-H226 lung, 27.5 µM; in the assay on T-47D breast, 32.2 µM; in the assay with NCI-H522 lung it was 1.93 µM; in the assay on CAKI-1 renal it was 5.26 µM; in the assay with A549 NSCLC it was 17 µM. In addition, the TGI amounted to 17.7 µM in the assay on HCC-2998 colon; 2.09 µM in the assay with MDA-MB-231 breast; 4.39 µM in the assay on HL-60(TB) leukemia; 3.24 µM in the assay with LOX IMVI melanoma; 2.44 µM with SR leukemia.
Take `COc1ccc(-n2c(Cn3nnc(-c4cccnc4)n3)nn(C3OC(COC(=O)c4ccccc4)C(OC(=O)c4ccccc4)C3OC(=O)c3ccccc3)c2=S)cc1` (configuration not stated): the TGI is greater than 100 µM in the assay with SK-OV-3 ovarian; 36.1 µM in the assay on NCI-H226 lung; greater than 100 µM with T-47D breast; greater than 100 µM with NCI-H522 lung; greater than 100 µM with CAKI-1 renal; greater than 100 µM with A549 NSCLC. The TGI in the assay on HCC-2998 colon, in the assay with MDA-MB-231 breast, in the assay on HL-60(TB) leukemia, with LOX IMVI melanoma and with SR leukemia was greater than 100 µM in each case.
For the compound `Cc1cnc2c(c1)C(=O)N(c1ccc([N+](=O)[O-])cc1)S2(=O)=O`, the TGI with SK-OV-3 ovarian is greater than 100 µM; in the assay with NCI-H226 lung it was 78.5 µM; in the assay on T-47D breast, greater than 100 µM; in the assay with NCI-H522 lung it was greater than 100 µM; with CAKI-1 renal, greater than 100 µM; in the assay with A549 NSCLC, greater than 100 µM. Besides, the TGI in the assay with HCC-2998 colon was greater than 100 µM; in the assay on MDA-MB-231 breast, greater than 100 µM; with HL-60(TB) leukemia it was greater than 100 µM; in the assay on LOX IMVI melanoma, greater than 100 µM; in the assay on SR leukemia, 99.2 µM.
As for `CO[C@H]1O[C@@H]2OC3(C)CCC4[C@H](C)CCC([C@H]1C)[C@]42OO3` (some centres not stated), the TGI in the assay with SK-OV-3 ovarian, in the assay with NCI-H226 lung, in the assay on T-47D breast, in the assay on NCI-H522 lung, in the assay on CAKI-1 renal and in the assay with A549 NSCLC was greater than 100 µM throughout. Further, the TGI is greater than 100 µM in the assay on HCC-2998 colon; greater than 100 µM in the assay on MDA-MB-231 breast; 46.7 µM in the assay with HL-60(TB) leukemia; greater than 100 µM with LOX IMVI melanoma; greater than 100 µM with SR leukemia.
For `O=C1CCSc2nc(-c3ccc4c(c3)OCO4)nn21`, the TGI with SK-OV-3 ovarian, in the assay with NCI-H226 lung, in the assay on T-47D breast, in the assay with NCI-H522 lung, in the assay on CAKI-1 renal and with A549 NSCLC was greater than 10 µM each time. Moreover, the TGI with HCC-2998 colon, in the assay with MDA-MB-231 breast, in the assay on HL-60(TB) leukemia, with LOX IMVI melanoma and in the assay with SR leukemia was greater than 10 µM throughout.
As for `O=C(NCCc1ccccc1)c1cc(/C=C/c2cc(O)ccc2O)ccc1O`, the TGI in the assay on SK-OV-3 ovarian is 26.4 µM; in the assay on NCI-H226 lung, 27.8 µM; with T-47D breast it was 3.86 µM; with NCI-H522 lung it was 4.32 µM; with CAKI-1 renal, 13.2 µM; in the assay on A549 NSCLC, greater than 41.1 µM. Besides, the TGI in the assay on HCC-2998 colon came out at 21.7 µM; with MDA-MB-231 breast it was 12.9 µM; with HL-60(TB) leukemia it was 9.65 µM; with LOX IMVI melanoma, 17.5 µM; in the assay with SR leukemia it was 8.58 µM.
Regarding `S=C(Nc1ccc2c(c1)oc1ccccc12)c1cccs1`, the TGI in the assay with SK-OV-3 ovarian, in the assay on NCI-H226 lung, in the assay with T-47D breast, in the assay with NCI-H522 lung, with CAKI-1 renal and in the assay with A549 NSCLC was greater than 100 µM throughout. The TGI with HCC-2998 colon, in the assay with MDA-MB-231 breast, in the assay with HL-60(TB) leukemia, in the assay with LOX IMVI melanoma and in the assay with SR leukemia was greater than 100 µM each time.
Turning to `CCCNCC(O)CNc1ccc(NCC(O)CNCCC)c2c1C(=O)c1ccccc1C2=O` (configuration not stated), the TGI with SK-OV-3 ovarian was determined as 7.78 µM; in the assay with NCI-H226 lung, 6.24 µM; in the assay with T-47D breast it was 14.6 µM; with NCI-H522 lung it was 7.81 µM; in the assay with CAKI-1 renal, 28.7 µM; with A549 NSCLC, 4.64 µM. In addition, the TGI in the assay with HCC-2998 colon stood at 3.21 µM; in the assay on MDA-MB-231 breast, 10.1 µM; in the assay with HL-60(TB) leukemia, 18.9 µM; with LOX IMVI melanoma, 3.62 µM; in the assay on SR leukemia, 11 µM.
For `COC(=O)c1ccc(C)cc1C1CN=NC12Cc1cc(C)ccc1C2=O` (configuration not stated), the TGI was greater than 100 µM in the assay with SK-OV-3 ovarian; 88 µM with NCI-H226 lung; greater than 100 µM with T-47D breast; 26.8 µM with NCI-H522 lung; 97.3 µM in the assay with CAKI-1 renal; greater than 100 µM with A549 NSCLC. The TGI was greater than 71.4 µM with HCC-2998 colon; 64.9 µM in the assay on MDA-MB-231 breast; 16.3 µM in the assay on HL-60(TB) leukemia; 42.9 µM in the assay on LOX IMVI melanoma; 32.2 µM in the assay with SR leukemia.
